Experimental findings from patent US10980889B1 (Revolution Medicines, Inc., priority 2018, dated 2021) are described below.

For one assay, the system named is P-4E-BP1 (T37/46). Nature of the assay: Cell based AlphaLISA assay, inhibition of P-4E-BP1 (T37/46) in MDA-MB-468 cells (mTORC1 substrate). The following applies: Homo sapiens, 4 h, AlphaLisa, two to four hours at 37° C., read-out: pIC50 for Inhibition of mTORC1 and mTORC2 Substrate Phosphorylation P-4E-BP1-(T37/46) (converted). Summed up: (§1)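 In MDA-MB-468 cells, phosphorylation of 4EBP1 (Thr37/46), P70S6K (Thr389) and AKT (Ser473) was measured after incubation with inhibitor by AlphaLISA SureFire Ultra on cell lysates, in duplicate. IC50 values came from control-normalized concentration-response regression.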
In general terms: Bead proximity is the source of the signal in Alpha formats.

For another assay, the system named is P-P70S6K (T389). Nature of the assay: Cell based AlphaLISA assay, inhibition of P-P70S6K (T389) in MDA-MB-468 cells (mTORC1 substrate). As to conditions: Homo sapiens, 4 h, AlphaLisa, two to four hours at 37° C., read-out: pIC50 for Inhibition of mTORC1 and mTORC2 Substrate Phosphorylation p-P70S6K-(T389) (converted). The procedure, abridged:
as §1

The subject of the next assay is P-Akt (S473). As to the kind of experiment: Cell based AlphaLISA assay, inhibition of P-Akt (S473) in MDA-MB-468 cells (mTORC2 substrate). The following applies: Homo sapiens, 4 h, AlphaLisa, two to four hours at 37° C., read-out: pIC50 for Inhibition of mTORC1 and mTORC2 Substrate Phosphorylation p-AKT1/2/3-(S473) (converted). Summed up:
as §1

As for `CO[C@H]1C[C@@H]2CC[C@@H](C)[C@@](O)(O2)C(=O)C(=O)N2CCCC[C@H]2C(=O)O[C@H]([C@H](C)C[C@@H]2CC[C@@H](OC(=O)NCc3cnc(N4CCN(c5ncc(C(=O)NCCOCCOCCOCCOCCC(=O)N6CCc7cc(Cn8nc(-c9cnc%10[nH]ccc%10c9)c9c(N)ncnc98)ccc7C6)c(N)n5)CC4)nc3)[C@H](OC)C2)CC(=O)[C@H](C)/C=C(\C)[C@@H](O)[C@@H](OC)C(=O)[C@H](C)C[C@H](C)/C=C/C=C/C=C/1C` [Example 96], the IC50 in the assay with P-4E-BP1 (T37/46) was less than 3.16 nM; with P-P70S6K (T389) it was less than 1 nM; in the assay with P-Akt (S473), 31.6 to 1000 nM.

As for `CO[C@H]1C[C@@H]2CC[C@@H](C)[C@@](O)(O2)C(=O)C(=O)N2CCCC[C@H]2C(=O)O[C@H]([C@H](C)C[C@@H]2CC[C@@H](OC(=O)NCc3cnc(N4CCN(c5ncc(C(=O)N6CCN(c7ncc(C(=O)N8CCc9cc(Cn%10nc(-c%11ccc%12oc(N)nc%12c%11)c%11c(N)ncnc%11%10)ccc9C8)cn7)CC6)cn5)CC4)nc3)[C@H](OC)C2)CC(=O)[C@H](C)/C=C(\C)[C@@H](O)[C@@H](OC)C(=O)[C@H](C)C[C@H](C)/C=C/C=C/C=C/1C` [Example 139], the IC50 in the assay on P-4E-BP1 (T37/46) was less than 3.16 nM; in the assay on P-P70S6K (T389) it was less than 1 nM; in the assay with P-Akt (S473), 31.6 to 1000 nM.

With `CO[C@H]1C[C@@H]2CC[C@@H](C)[C@@](O)(O2)C(=O)C(=O)N2CCCC[C@H]2C(=O)O[C@H]([C@H](C)C[C@@H]2CC[C@@H](OC(=O)N3CCC(N)(C(=O)NCCOCCOCCOCCOCCOCCOCCC(=O)N4CCc5cc(Cn6nc(-c7ccc8oc(N)nc8c7)c7c(N)ncnc76)ccc5C4)CC3)[C@H](OC)C2)C[C@@H](O)[C@H](C)/C=C(\C)[C@@H](O)[C@@H](OC)C(=O)[C@H](C)C[C@H](C)/C=C/C=C/C=C/1C` [Example 101], the values for the IC50 in the assay with P-4E-BP1 (T37/46), in the assay on P-P70S6K (T389) and in the assay with P-Akt (S473) were less than 3.16 nM, less than 1 nM and 3.16 to 31.6 nM, respectively.

`CO[C@H]1C[C@@H]2CC[C@@H](C)[C@@](O)(O2)C(=O)C(=O)N2CCCC[C@H]2C(=O)O[C@H]([C@H](C)C[C@@H]2CC[C@@H](OC(=O)NC3CCN(CC(=O)NCCOCCOCCOCCOCCOCCOCCC(=O)N4CCc5cc(Cn6nc(-c7ccc8oc(N)nc8c7)c7c(N)ncnc76)ccc5C4)CC3)[C@H](OC)C2)C[C@@H](OC)[C@H](C)/C=C(\C)[C@@H](O)[C@@H](OC)C(=O)[C@H](C)C[C@H](C)/C=C/C=C/C=C/1C` [Example 99]: the IC50 with P-4E-BP1 (T37/46) is less than 3.16 nM; in the assay on P-P70S6K (T389), less than 1 nM; in the assay with P-Akt (S473), greater than 1000 nM.
